According to ChEMBL document CHEMBL3396980, “Total synthesis of Herbarin A and B, determination of their antioxidant properties and toxicity in zebrafish embryo model” (Bioorg Med Chem Lett, 2015):

What was measured:
[1] = Antioxidant activity assessed as ferric ion reducing activity using fe3+-TPTZ assessed as fe2+-TPTZ formation at 0.1 to 1 mM by spectrophotometry based FRAP assay; assay type: physicochemical; conditions: 1000 µM
[2] = species on record: Danio rerio; test: Toxicity in wild type zebrafish embryo in E3 medium treated for 2 days observed on 24 hrs of post fertilization by microscopy; assay type: organism-based; conditions: in vivo, 48 h
[3] = species on record: Danio rerio; test: Toxicity in wild type zebrafish embryo in E3 medium assessed as teratogenicity treated at 9 to 190 nM for 2 days observed on 24 hrs of post fertilization by microscopy; assay type: organism-based; conditions: in vivo, 48 h, 0.19 µM

Activity [1]	SMILES	Activity [2]	Activity [3]
Active	COc1cc(=O)oc(/C=C/C=C/C(=O)O)c1C	Non-toxic	–
Active	COc1cc(=O)oc(/C=C/C(=O)O)c1C	–	100%
